Here are results for 32 compounds from patent US9963452B2, “Methods, compounds, and compositions for inhibition of ROS” (AUGUSTA PHARMACEUTICALS INC., priority 2013, dated 2018).

What all share (type): cell-based
For experiment [1], the system named is U138 glioblastoma cell line. Put plainly: In-vitro cell survival assay (Alamar blue), U138. The settings on record: U138, one day after compound addition. Here is the method: (§1) Five tumor-derived cell lines were treated with the ROS inhibitor compounds and cell survival was monitored to determine the cancer prohibition effects of the compounds. The cell lines included HeLa, a cervical cancer cell line, and four glioblastoma cell lines U138, U87, LN18, and U118. The basic protocol for the in-vitro cell survival assay is the same for all five cell lines. In particular, the cells were seeded in 96-well plates at 2-5×10^3 cells/well (cell line dependent) in culture medium. The cells were grown for 2 days before the compounds were dissolved in DMSO and added to final concentrations of 100 uM, 10 uM, or 1 uM (DMSO final concentration 0.5%). The cell culture was then assayed one day after the addition of the compounds. The assay used Alamar blue as a redox-sensitive dye that interrogates mitochondrial fitness of cells, and these assays provided a readout for cell proliferation and viability. The raw values were normalized to an average of several vehicle control wells and are presented as percent decrease in proliferation/viability, which is converted to half maximal effective concentration (EC50) values.
On the technique in general: Resazurin is reduced to fluorescent resorufin, in cell work by metabolically active cells.

In experiment [2] the test system is HeLa cervical cancer cell line. Put plainly: In-vitro cell survival assay (Alamar blue), HeLa. Particulars: one day after compound addition. The method, then: as §1
Experiment [3] deals with U87 glioblastoma cell line. As to the kind of experiment: In-vitro cell survival assay (Alamar blue), U87. The settings on record: U87, one day after compound addition. Here is the method: as §1
Experiment [4] deals with LN18 glioblastoma cell line. Put plainly: In-vitro cell survival assay (Alamar blue), LN18. Particulars: LN18, one day after compound addition. The method, then:
as §1

Experiment [5] concerns U118 glioblastoma cell line. As to the kind of experiment: In-vitro cell survival assay (Alamar blue), U118. Particulars: U118, one day after compound addition. The method, then:
as §1

pEC50: −log10 of the molar value.

With `O=C(c1cccc(-c2noc(-c3n[nH]c4c3CCCC4)n2)c1)N1CCCCC1` [drawing 385], the pEC50 in experiment [1] (24 h) was 4.08; in experiment [2] (Homo sapiens, 24 h) it was below 4.00; in experiment [3] (24 h), 4.85; in experiment [4] (Homo sapiens, LN-18, 24 h) it was 4.21; in experiment [5] (24 h), 4.08.
In the case of `CCN(CCO)c1nc(Nc2ccc(F)cc2)c2cnn(-c3ccccc3)c2n1` [drawing 386], the pEC50 is 4.24 in experiment [1] (24 h); 4.27 in experiment [2] (Homo sapiens, 24 h); 5.00 in experiment [3] (24 h); 5.15 in experiment [4] (Homo sapiens, LN-18, 24 h); 4.24 in experiment [5] (24 h).
For the compound `COc1ccc(Nc2nc(N(C)CCO)nc3c2cnn3-c2ccccc2)cc1` [drawing 387], the pEC50 was 5.05 in experiment [1] (24 h); 5.15 in experiment [2] (Homo sapiens, 24 h); 4.96 in experiment [3] (24 h); 5.22 in experiment [4] (Homo sapiens, LN-18, 24 h); 5.10 in experiment [5] (24 h).
`CC(C)(C)c1cc(C(=O)NNc2cccc(Cl)c2)n(Cc2ccccc2)n1` [drawing 389]: the pEC50 is below 4.00 in experiment [1] (24 h); below 4.00 in experiment [2] (Homo sapiens, 24 h); 4.30 in experiment [3] (24 h); below 4.00 in experiment [4] (Homo sapiens, LN-18, 24 h); below 4.00 in experiment [5] (24 h).
Turning to `O=C(NNc1cc(C(F)(F)F)ccc1Cl)c1cccnc1Oc1ccccc1` [drawing 390], the pEC50 in experiment [1] (24 h) is below 4.00; in experiment [2] (Homo sapiens, 24 h), 4.23; in experiment [3] (24 h) it was 4.02; in experiment [4] (Homo sapiens, LN-18, 24 h) it was 4.24; in experiment [5] (24 h), below 4.00.
In the case of `O=C1NCCN1CCN1C(=O)c2ccccc2N[C@H]1c1ccccc1` [drawing 391], the pEC50 in experiment [1] (24 h) is below 4.00; in experiment [2] (Homo sapiens, 24 h) it was below 4.00; in experiment [3] (24 h), below 4.00; in experiment [4] (Homo sapiens, LN-18, 24 h), 4.44; in experiment [5] (24 h), 4.42.
For `O=C1NN=C(c2ccccc2)/C1=C1\OC(c2ccccc2)=CS1` [drawing 392], the pEC50 in experiment [1] (24 h) is below 4.00; in experiment [2] (Homo sapiens, 24 h), 4.64; in experiment [3] (24 h), 4.43; in experiment [4] (Homo sapiens, LN-18, 24 h), 4.77; in experiment [5] (24 h), 4.57.
Take `Cc1ccc(-n2cc(-c3cccs3)nc2SCc2n[nH]c(=S)n2Cc2ccccc2)cc1` [drawing 393]: the pEC50 in experiment [1] is below 4.00; in experiment [2], below 4.00; in experiment [3] it was 4.62; in experiment [4], below 4.00; in experiment [5], below 4.00.
On to `O=c1[nH][nH]c2nnc(-c3ccccc3)c(-c3ccccc3)c12` [drawing 394], for which the pEC50 in experiment [1] was below 4.00; in experiment [2] it was below 4.00; in experiment [3], 4.55; in experiment [4] it was below 4.00; in experiment [5], below 4.00.
Turning to `Nc1nc(N)n(-c2ccccc2)/c(=N/c2ccccc2)n1` [drawing 395], the pEC50 in experiment [1] (24 h) was below 4.00; in experiment [2] (Homo sapiens, 24 h) it was below 4.00; in experiment [3] (24 h), 4.48; in experiment [4] (Homo sapiens, LN-18, 24 h), below 4.00; in experiment [5] (24 h), below 4.00.
For the compound `CSc1sc(-c2n[nH]cc2Br)c2c1C(=O)CC(C)(C)C2` [drawing 396], the pEC50 in experiment [1] was below 4.00; in experiment [2], below 4.00; in experiment [3], 4.74; in experiment [4], 4.03; in experiment [5] it was below 4.00.
For the compound `FC(F)(F)c1cc(-n2c(Cc3cccc4ccccc34)n[nH]c2=S)cc(C(F)(F)F)c1` [drawing 397], the pEC50 in experiment [1] was below 4.00; in experiment [2] it was 4.21; in experiment [3], 4.70; in experiment [4] it was below 4.00; in experiment [5], below 4.00.
Consider `Cc1nc2cc(C(=O)N[C@H](c3ccccc3)c3cccnc3)ccc2[nH]1` [drawing 398], for which the pEC50 in experiment [1] (24 h) is below 4.00; in experiment [2] (Homo sapiens, 24 h), below 4.00; in experiment [3] (24 h), below 4.00; in experiment [4] (Homo sapiens, LN-18, 24 h) it was below 4.00; in experiment [5] (24 h), below 4.00.
Consider `Cc1cc(C)c(NC(=O)c2cc3ccccc3c(=O)s2)c(-c2cc(C)[nH]n2)c1` [drawing 400], for which the pEC50 in experiment [1], in experiment [2], in experiment [3], in experiment [4] and in experiment [5] was below 4.00 each time.
For the compound `NC(=O)c1c(NC(=O)Nc2ccccc2)sc2c1CCCC2` [drawing 401], the pEC50 was 4.57 in experiment [1] (24 h); 4.80 in experiment [2] (Homo sapiens, 24 h); 4.10 in experiment [3] (24 h); 4.42 in experiment [4] (Homo sapiens, LN-18, 24 h); 4.47 in experiment [5] (24 h).
In the case of `Cn1c(=O)c2c(nc3n(CCO)c(-c4ccccc4)cn23)n(C)c1=O` [drawing 402], the pEC50 was below 4.00 in experiment [1] (24 h); below 4.00 in experiment [2] (Homo sapiens, 24 h); below 4.00 in experiment [3] (24 h); below 4.00 in experiment [4] (Homo sapiens, LN-18, 24 h); below 4.00 in experiment [5] (24 h).
`CC1=NNC(=O)/C1=C\c1cn(-c2ccccc2)nc1-c1ccccc1` [drawing 403]: the pEC50 is 5.10 in experiment [1] (24 h); 4.70 in experiment [2] (Homo sapiens, 24 h); 5.10 in experiment [3] (24 h); 4.92 in experiment [4] (Homo sapiens, LN-18, 24 h); 5.15 in experiment [5] (24 h).
For the compound `Cc1ccc(F)cc1S(=O)(=O)Nc1cccc(C(=O)OCC(=O)NC2CCCCC2)c1` [drawing 404], the pEC50 in experiment [1] (24 h) was below 4.00; in experiment [2] (Homo sapiens, 24 h), below 4.00; in experiment [3] (24 h), 4.48; in experiment [4] (Homo sapiens, LN-18, 24 h), below 4.00; in experiment [5] (24 h), below 4.00.
For the compound `O=C1c2ccccc2C(=O)N1C[C@H](O)Cn1nc(-c2cccs2)c2ccccc2c1=O` [drawing 405], the pEC50 in experiment [1] (24 h) was below 4.00; in experiment [2] (Homo sapiens, 24 h), below 4.00; in experiment [3] (24 h), below 4.00; in experiment [4] (Homo sapiens, LN-18, 24 h) it was below 4.00; in experiment [5] (24 h) it was below 4.00.
As for `O=c1c(O)c(-c2ccc(O)c(O)c2)oc2cc(O)cc(O)c12` [drawing 406], the pEC50 in experiment [1] (24 h) is below 4.00; in experiment [2] (Homo sapiens, 24 h), 4.68; in experiment [3] (24 h), 4.44; in experiment [4] (Homo sapiens, LN-18, 24 h), 4.62; in experiment [5] (24 h), 4.48.
As for `O=C(NCC1CCCCC1)c1cccc(Nc2nccc(Nc3ccc4ncsc4c3)n2)c1` [drawing 407], the pEC50 is below 4.00 in experiment [1] (24 h); below 4.00 in experiment [2] (Homo sapiens, 24 h); 4.48 in experiment [3] (24 h); 4.06 in experiment [4] (Homo sapiens, LN-18, 24 h); below 4.00 in experiment [5] (24 h).
Consider `CC(C)(CO)NC(=O)c1cccc(Nc2nccc(Nc3ccc4ncsc4c3)n2)c1` [drawing 408], for which the pEC50 was 4.80 in experiment [1] (24 h); 4.92 in experiment [2] (Homo sapiens, 24 h); 4.77 in experiment [3] (24 h); 5.00 in experiment [4] (Homo sapiens, LN-18, 24 h); 4.74 in experiment [5] (24 h).
For `Nc1nc(Nc2ccc(C(=O)N3CCCCCC3)cc2)cc(Nc2ccc3ncsc3c2)n1` [drawing 409], the pEC50 was below 4.00 in experiment [1] (24 h); 4.30 in experiment [2] (Homo sapiens, 24 h); 4.60 in experiment [3] (24 h); 4.85 in experiment [4] (Homo sapiens, LN-18, 24 h); below 4.00 in experiment [5] (24 h).
As to `O=C(NCc1cccs1)c1cccc(Nc2nccc(Nc3ccc4ncsc4c3)n2)c1` [drawing 410], the pEC50 in experiment [1] (24 h) is 4.59; in experiment [2] (Homo sapiens, 24 h), 5.05; in experiment [3] (24 h), 4.60; in experiment [4] (Homo sapiens, LN-18, 24 h), 4.96; in experiment [5] (24 h) it was 4.64.
For `O=C(NCCN1CCOCC1)c1cccc(Nc2nccc(Nc3ccc4ncsc4c3)n2)c1` [drawing 411], the pEC50 was below 4.00 in experiment [1] (24 h); 4.72 in experiment [2] (Homo sapiens, 24 h); 4.74 in experiment [3] (24 h); below 4.00 in experiment [4] (Homo sapiens, LN-18, 24 h); below 4.00 in experiment [5] (24 h).
As to `Cc1cccc(Nc2nccc(Nc3cccc(C(=O)NCc4ccccc4F)c3)n2)c1` [drawing 412], the pEC50 in experiment [1] (24 h) is 4.47; in experiment [2] (Homo sapiens, 24 h), 5.05; in experiment [3] (24 h), 4.96; in experiment [4] (Homo sapiens, LN-18, 24 h), 5.22; in experiment [5] (24 h), 4.80.
The like results for `CN(C)CC(C)(C)CNC(=O)c1cccc(Nc2nccc(Nc3ccc4ncsc4c3)n2)c1` [drawing 413] were, in that order, 4.14, 4.62, 4.49, 5.05 and 4.12.
As for `CN1CCN(C(=O)c2cccc(Nc3nccc(Nc4ccc5ncsc5c4)n3)c2)CC1` [drawing 415], the pEC50 is 4.49 in experiment [1] (24 h); 4.96 in experiment [2] (Homo sapiens, 24 h); 4.66 in experiment [3] (24 h); 4.85 in experiment [4] (Homo sapiens, LN-18, 24 h); 4.41 in experiment [5] (24 h).
`Cc1cccc(Nc2nccc(Nc3cccc(C(=O)NCCCN4CCOCC4)c3)n2)c1` [drawing 416]: the pEC50 in experiment [1] (24 h) is 4.12; in experiment [2] (Homo sapiens, 24 h), 4.47; in experiment [3] (24 h), 4.00; in experiment [4] (Homo sapiens, LN-18, 24 h), 4.40; in experiment [5] (24 h), below 4.00.
The matching figures for `Nc1nc(Nc2ccc(C(=O)NCCc3ccncc3)cc2)cc(Nc2ccc3ncsc3c2)n1` [drawing 417]: 4.48, 4.66, 4.77, below 4.00 and below 4.00.
`O=C(NCCc1ccccc1)c1cccc(Nc2nccc(Nc3ccc4ncsc4c3)n2)c1` [drawing 418]: the pEC50 in experiment [1] (24 h) was 4.42; in experiment [2] (Homo sapiens, 24 h) it was 4.82; in experiment [3] (24 h), 4.89; in experiment [4] (Homo sapiens, LN-18, 24 h), 4.96; in experiment [5] (24 h), 4.62.
The matching figures for `Cc1ccc(CNC(=O)c2cccc(Nc3nccc(Nc4ccc5ncsc5c4)n3)c2)o1` [drawing 419]: 4.72, 5.00, 4.80, 5.15 and 4.77.

Usually pEC50 stands for −log10 of the EC50, conventionally taken in molar units.
